In ChEMBL document CHEMBL1201862, “PubChem BioAssay data set” (2004):
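Tested at 5 concentrations; 48 h exposure; 96-well plates; endpoints linearly interpolated, else capped at highest concentration. GI50 = concentration required for 50% inhibition of growth.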 The source made the active and inactive calls. No stated cut-off is given here; in the data, active = GI50 up to about 1.1 µM and inactive = higher.

Key:
Experiment in all cases: growth of human tumour cells (NCI), 48 h
SK-MEL-5 = test system: SK-MEL-5
RPMI-8226 = test system: RPMI-8226
U-251 = test system: U-251
NCI-H522 = test system: NCI-H522
SK-OV-3 = test system: SK-OV-3
SNB-75 = test system: SNB-75
CAKI-1 = test system: CAKI-1
HOP-62 = test system: HOP-62
SNB-19 = test system: SNB-19
EKVX = test system: EKVX
Malme-3M = test system: Malme-3M
SN12C = test system: SN12C
HCC 2998 = test system: HCC 2998
CCRF-CEM = test system: CCRF-CEM
HT-29 = test system: HT-29
UACC-257 = test system: UACC-257
HCT-15 = test system: HCT-15
RXF 393 = test system: RXF 393

Structure (SMILES)	GI50 (SK-MEL-5)	GI50 (RPMI-8226)	GI50 (U-251)	GI50 (NCI-H522)	GI50 (SK-OV-3)	GI50 (SNB-75)	GI50 (CAKI-1)	GI50 (HOP-62)	GI50 (SNB-19)	GI50 (EKVX)	GI50 (Malme-3M)	GI50 (SN12C)	GI50 (HCC 2998)	GI50 (CCRF-CEM)	GI50 (HT-29)	GI50 (UACC-257)	GI50 (HCT-15) [µM]	GI50 (RXF 393)
Cn1cnnc1Sc1c([N+](=O)[O-])ncn1C	> 100 µM (inactive)	40.5 µM (inactive)	> 100 µM (inactive)	12.6 µM (inactive)	> 100 µM (inactive)	> 100 µM (inactive)	> 100 µM (inactive)	> 100 µM (inactive)	> 100 µM (inactive)	> 100 µM (inactive)	16.4 µM (inactive)	> 100 µM (inactive)	> 100 µM (inactive)	29.4 µM (inactive)	> 100 µM (inactive)	> 100 µM (inactive)		
NC(=O)c1cccc([N+](=O)[O-])c1	> 100 µM (inactive)	> 100 µM (inactive)	> 100 µM (inactive)	> 100 µM (inactive)	> 100 µM (inactive)	> 100 µM (inactive)	> 100 µM (inactive)	> 100 µM (inactive)	> 100 µM (inactive)	> 100 µM (inactive)	> 100 µM (inactive)	> 100 µM (inactive)	> 100 µM (inactive)	> 100 µM (inactive)	> 100 µM (inactive)	> 100 µM (inactive)	> 100	
c1ccc(CN(Cn2cccn2)Cn2cccn2)nc1	> 100 µM (inactive)	29.4 µM (inactive)	> 100 µM (inactive)	> 100 µM (inactive)	> 100 µM (inactive)	> 100 µM (inactive)	> 100 µM (inactive)	> 100 µM (inactive)	> 100 µM (inactive)	> 100 µM (inactive)		> 100 µM (inactive)		> 100 µM (inactive)		> 100 µM (inactive)	> 100	> 100 µM (inactive)
CCOc1ccc(/C=C(\Cl)c2ccc(OC)c(OC)c2)cc1	26.5 µM (inactive)	20 µM (inactive)	> 100 µM (inactive)	19.2 µM (inactive)	77.1 µM (inactive)	> 100 µM (inactive)		98.6 µM (inactive)	> 100 µM (inactive)	80.4 µM (inactive)	58.9 µM (inactive)	60.3 µM (inactive)	41.6 µM (inactive)	37.1 µM (inactive)	16.6 µM (inactive)	21 µM (inactive)	20.9	12.4 µM (inactive)
COc1cc2c(cc1OC)C(O)[C@H](Br)C(C)(C)O2 (stereo partly drawn)	> 100 µM (inactive)	> 100 µM (inactive)	> 100 µM (inactive)	> 100 µM (inactive)	> 100 µM (inactive)	84.3 µM (inactive)		> 100 µM (inactive)	> 100 µM (inactive)	> 100 µM (inactive)	> 100 µM (inactive)	> 100 µM (inactive)	> 100 µM (inactive)	> 100 µM (inactive)	> 100 µM (inactive)	> 100 µM (inactive)	> 100	> 100 µM (inactive)
N#CC(C(=O)/C(=N/NC(=O)c1ccccc1O)C(C#N)c1ccc(Cl)cc1)c1ccc(Cl)cc1 (stereo not drawn)		15.8 µM (inactive)	10.6 µM (inactive)	> 10 µM (inactive)	30.8 µM (inactive)	3.56 µM (inactive)		20.7 µM (inactive)	15 µM (inactive)	22.4 µM (inactive)	12.4 µM (inactive)	13.2 µM (inactive)		4.26 µM (inactive)	12.1 µM (inactive)	14.6 µM (inactive)	15.3	4.05 µM (inactive)
CCN(CC)CCNc1ccc2nnn3c4ccc(C)cc4c(=O)c1c23	10.7 µM (inactive)	4.62 µM (inactive)	11.5 µM (inactive)	7.67 µM (inactive)	10.9 µM (inactive)	10.8 µM (inactive)	13.2 µM (inactive)	14.9 µM (inactive)	12.7 µM (inactive)		12.6 µM (inactive)	8 µM (inactive)		4.16 µM (inactive)	4.14 µM (inactive)	13.2 µM (inactive)	9.62	
COc1cc2cc3c4c(cc(OC)c(OC)c4c2cc1OC)CCN3C(=O)OCCBr	53.1 µM (inactive)		> 100 µM (inactive)	37.6 µM (inactive)	> 100 µM (inactive)	46 µM (inactive)	41.9 µM (inactive)		> 100 µM (inactive)	10.1 µM (inactive)	> 100 µM (inactive)	45 µM (inactive)	42.3 µM (inactive)	20.6 µM (inactive)	50.1 µM (inactive)	> 100 µM (inactive)	60	42.5 µM (inactive)
COC(=O)C1CC/C(=N/C2c3ccccc3-c3ccccc32)N1 (stereo not drawn)		61.5 µM (inactive)	> 100 µM (inactive)	19.6 µM (inactive)	> 100 µM (inactive)	58.6 µM (inactive)	> 100 µM (inactive)	> 100 µM (inactive)	> 100 µM (inactive)	> 100 µM (inactive)	> 100 µM (inactive)	> 100 µM (inactive)	57.9 µM (inactive)	58.6 µM (inactive)	> 100 µM (inactive)	> 100 µM (inactive)	> 100	
C/C1=N\[N-]C(=O)c2ccccc2C(=O)N/N=C(\C)c2cccc1n2.O=[N+]([O-])[O-].[Zn+2]	> 100 µM (inactive)	> 100 µM (inactive)	> 100 µM (inactive)	> 100 µM (inactive)	> 100 µM (inactive)	19.5 µM (inactive)	> 100 µM (inactive)	> 100 µM (inactive)	> 100 µM (inactive)	> 100 µM (inactive)	> 100 µM (inactive)	> 100 µM (inactive)	> 100 µM (inactive)	> 100 µM (inactive)	> 100 µM (inactive)	> 100 µM (inactive)	> 100	
COc1ccc(/C=C/C(=O)c2sc(-n3nc(-c4ccccc4)cc3-c3ccccc3)nc2C)cc1OC		22.1 µM (inactive)	28.8 µM (inactive)	19.5 µM (inactive)	> 100 µM (inactive)		54.2 µM (inactive)	57.1 µM (inactive)	36.6 µM (inactive)	26.1 µM (inactive)	65.8 µM (inactive)	31.6 µM (inactive)	51.1 µM (inactive)	23.2 µM (inactive)	30.1 µM (inactive)	39.5 µM (inactive)	32.4	57.1 µM (inactive)
Nc1ccccc1C(=O)C(Br)C(Br)c1ccc2c(c1)OCO2 (stereo not drawn)		33.7 µM (inactive)	21.6 µM (inactive)	18.5 µM (inactive)	28.6 µM (inactive)	20.9 µM (inactive)		21.8 µM (inactive)	26.1 µM (inactive)	21.3 µM (inactive)	18.4 µM (inactive)	24.9 µM (inactive)	20.3 µM (inactive)	26 µM (inactive)	17.3 µM (inactive)	19.1 µM (inactive)	20.8	19.7 µM (inactive)
COc1ccc2c(c1)CCC(OS(=O)(=O)CC13CCC(CC1=O)C3(C)C)C2=O (stereo not drawn)	17.5 µM (inactive)	19.7 µM (inactive)	21.9 µM (inactive)	25.2 µM (inactive)		31.1 µM (inactive)	40.6 µM (inactive)	29.2 µM (inactive)	41.9 µM (inactive)	> 100 µM (inactive)	43 µM (inactive)	19 µM (inactive)	23 µM (inactive)	18.8 µM (inactive)		37.8 µM (inactive)	26.7	
